Laboratory results from ChEMBL document CHEMBL1147590, “Synthesis and antitumor activity of s-tetrazine derivatives” (Bioorg Med Chem Lett, 2004).

Assays:
[1] = system: P388; experiment: In vitro rate of inhibition of P388 tumor cell growth at 10E-7 mol/L; type: functional, Mus musculus; details: at 0.1 µM
[2] = system: P388; experiment: In vitro rate of inhibition of P388 tumor cell growth at 10E-8 mol/L; type: functional, Mus musculus; details: at 0.01 µM
[3] = system: A549; experiment: In vitro rate of inhibition of A-549 tumor cell growth at 10E-5 mol/L; type: functional, Homo sapiens; details: at 10 µM
[4] = system: A549; experiment: In vitro rate of inhibition of A-549 tumor cell growth at 10E-6 mol/L; type: functional, Homo sapiens; details: at 1 µM
[5] = system: P388; experiment: In vitro rate of inhibition of P388 tumor cell growth at 10E-4 mol/L; type: functional, Mus musculus; details: at 100 µM
[6] = system: A549; experiment: In vitro rate of inhibition of A-549 tumor cell growth at 10E-4 mol/L; type: functional, Homo sapiens; details: at 100 µM
[7] = system: P388; experiment: In vitro rate of inhibition of P388 tumor cell growth at 10E-5 mol/L; type: functional, Mus musculus; details: at 10 µM
[8] = system: A549; experiment: In vitro rate of inhibition of A-549 tumor cell growth at 10E-7 mol/L; type: functional, Homo sapiens; details: at 0.1 µM
[9] = system: P388; experiment: In vitro rate of inhibition of P388 tumor cell growth at 10E-6 mol/L; type: functional, Mus musculus; details: at 1 µM
[10] = system: A549; experiment: In vitro rate of inhibition of A-549 tumor cell growth at 10E-8 mol/L; type: functional, Homo sapiens; details: at 0.01 µM

Row | Compound | Rate of inhibition [1] [%] | Rate of inhibition [2] [%] | Rate of inhibition [3] [%] | Rate of inhibition [4] [%] | Rate of inhibition [5] [%] | Rate of inhibition [6] [%] | Rate of inhibition [7] [%] | Rate of inhibition [8] [%] | Rate of inhibition [9] [%] | Rate of inhibition [10] [%]
1 | COC(=O)N1C(c2ccccc2)=NN=C(c2ccccc2)N1C(=O)OC | 5.2 | 3.3 | 0 | 0 | 50.5 | 35.5 | 14.6 | 0 | 11.6 | 0
2 | c1ccc(C2=NNC(c3ccccc3)=NN2)cc1 | 10.2 |  | 69 | 0 | 55.8 | 87.6 | 67.2 | 0 | 5.4 | 
3 | CC1=NN(C(=O)Nc2ccccc2C)C(C)=NN1C(=O)Nc1ccccc1C | 0 | 0 | 0 | 0 | 82.8 | 80 | 18.8 | 0 | 1.6 | 0
4 | COc1ccc(NC(=O)N2N=C(C)N(C(=O)Nc3ccc(OC)cc3)N=C2C)cc1 | 6.3 | 0 | 0.9 | 0 | 73 | 24.2 | 36.5 | 0 | 14.3 | 0
5 | COC(=O)N1N=C(C)N=NC1C (configuration not stated) | 11.3 | 5.7 | 19.6 | 0 | 60.5 | 75.9 | 7.8 | 0 | 0 | 0
6 | CCC1NN(C(C)=O)C(CC)NN1C(C)=O (configuration not stated) | 0 | 0 | 9.7 | 10.1 | 38.9 | 47.5 | 0 | 2.9 | 0 | 0
7 | CCCC1=NN(C(=O)OC2CCCCC2)C(CCC)N=N1 (configuration not stated) | 44.8 | 4.5 | 5.2 | 23.5 | 44 | 25.8 | 33.6 | 18.1 | 38.3 | 1
8 | CC1=NN(C(=O)Nc2cc(Cl)cc(Cl)c2)C(C)=NN1C(=O)Nc1cc(Cl)cc(Cl)c1 | 0 | 0 | 0 | 0 | 30.6 | 42 | 5.9 | 0 | 1.9 | 0
9 | CC1=NN(C(=O)NCc2ccccc2)C(C)=NN1C(=O)NCc1ccccc1 | 22 | 19.6 | 82.3 | 81.8 | 92.8 | 64.4 | 57.5 | 32 | 50.3 | 14.1
10 | Cc1cccnc1-c1nnc(-c2ncccc2C)nn1 |  |  | 0 |  | 2.6 | 0 | 3.6 |  |  | 
11 | CCCCCOC(=O)N1N=C(C)N=NC1C (configuration not stated) | 0 | 0 | 4.6 | 0 | 42.6 | 22.8 | 19.8 | 1.1 | 7.3 | 7.6
12 | c1ccc(Cc2nnc(Cc3ccccc3)nn2)cc1 | 4.6 | 0 | 61.7 | 4.3 | 51 | 66.8 | 15.6 | 0 | 18.5 | 0
13 | CC1=NN(C(=O)Nc2cccc3ccccc23)C(C)=NN1C(=O)Nc1cccc2ccccc12 | 0 | 0 | 16.9 | 9.1 | 60.5 | 56.6 | 6.3 | 10 | 0 | 4.4
14 | CC1=NN(C(=O)Nc2cc(C)cc(C)c2)C(C)=NN1C(=O)Nc1cc(C)cc(C)c1 | 0 | 0 | 73.9 | 37.5 | 90.7 | 86.4 | 91.7 | 0 | 31.5 | 0
15 | CC1=NN(C(=O)Nc2ccc(Cl)cc2)C(C)=NN1C(=O)Nc1ccc(Cl)cc1 | 7.4 | 0 | 14.8 | 1.9 | 50 | 53.4 | 14.8 | 7.4 | 1.9 | 0
16 | CCCOC(=O)N1N=C(C)N=NC1C (configuration not stated) | 8.7 | 5.2 | 11 | 0 | 34.8 | 16.7 | 13.5 | 0 | 9 | 0
17 | CC(C)C(=O)N1N=C(c2ccccc2)NN=C1c1ccccc1 | 24.9 | 46.9 | 46.6 | 38.7 | 82.5 | 83.8 | 61.1 | 29.6 | 52 | 29.5
18 | CC1=NN(C(=O)NC2CCCCC2)C(C)=NN1C(=O)NC1CCCCC1 | 0 | 0 | 3.5 | 0 | 72.6 | 58.9 | 0 | 0 | 0 | 0
19 | CC1=NN(C(=O)Nc2cccc(N(C)C)c2)C(C)=NN1C(=O)Nc1cccc(N(C)C)c1 | 88.9 | 90.7 | 83 | 80.7 | 95.4 | 93.2 | 84.3 | 73.9 | 89.8 | 69.3
20 | CC1=NN(C(=O)Nc2cccc(C(F)(F)F)c2)C(C)=NN1C(=O)Nc1cccc(C(F)(F)F)c1 | 0 | 0 | 10.7 | 8.9 | 73 | 39.3 | 28.6 | 10.7 | 9.5 | 16.1
21 | CCCC1=NN(C(=O)OCC)C(CCC)N=N1 (configuration not stated) | 5 | 3.6 | 0 | 0 | 35.4 | 12.5 | 15 | 0 | 2.2 | 0
22 | CC1=NN(C(=O)Nc2cccc([N+](=O)[O-])c2)C(C)=NN1C(=O)Nc1cccc([N+](=O)[O-])c1 | 20.6 | 22.2 | 0 | 0 | 69.8 | 0.9 | 58.7 | 0 | 38.1 | 0
23 | CC1=NN(C(=O)OCc2ccccc2)C(C)N=N1 (configuration not stated) | 2.3 | 1 | 0 | 0 | 24.1 | 0 | 3 | 0 | 2 | 0
24 | COc1ccccc1C(=O)N1N=C(c2ccccc2)NN=C1c1ccccc1 | 0.8 | 0 | 72.6 | 4.7 | 64.5 | 90.9 | 25.2 | 0 | 7.4 | 0
25 | C1=CN(c2nnc(N3C=CN=CC3)nn2)CC=N1 | 0 | 0 | 3.9 | 0 | 69.9 | 60.6 | 0 | 0 | 0 | 0
